Measured values taken from patent US20230407243A1, “GENETIC PLATFORM TO INVESTIGATE THE FUNCTIONS OF BACTERIAL DRUG EFFLUX PUMPS” (priority 2022, published 2023).

Columns and labels:
Experiment in all cases: MIC susceptibility profiling, porinated efflux platform
Assay type in all cases: cell-based, Escherichia coli
[1] = test system: EKO-35 araC::emrAB Pore; details: for Fold changes of MICs: EKO-35 araC::emrAB Pore compared to EKO-35-Pore; for Minimum inhibitory concentration: EKO-35 araC::emrAB Pore, technical duplicate
Method in brief: (§1)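 E. coli strains carrying a genomically integrated constitutive fhuA ΔC/Δ4L pore were grown 18 h in LB at 37 °C, then diluted 1/2000 in MHB II from OD600 ~1.0. Compounds were tested in duplicate, 2-fold serial titration, for 18 h at 37 °C with shaking. MIC came from OD600 with the pre-incubation background subtracted.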

[2] = test system: EKO-35 araC::acrEF Pore; details: for Fold changes of MICs: EKO-35 araC::acrEF Pore compared to EKO-35-Pore; for Minimum inhibitory concentration, EKO-35 araC::acrEF Pore: Table 14A, porinated, technical duplicate
Method in brief: as §1

[3] = test system: EKO-35 araC::acrD Pore; details: for Fold changes of MICs: EKO-35 araC::acrD Pore compared to EKO-35-Pore; for Minimum inhibitory concentration, EKO-35 araC::acrD Pore: Table 14A, porinated, technical duplicate
Method in brief: as §1

[4] = test system: EKO-35 araC::emrKY Pore; details: for Fold changes of MICs: EKO-35 araC::emrKY Pore compared to EKO-35-Pore; for Minimum inhibitory concentration: EKO-35 araC::emrKY Pore, technical duplicate
Method in brief: as §1

[5] = test system: EKO-35 araC::mexCD Pore; details: for Fold changes of MICs: EKO-35 araC::mexCD Pore compared to EKO-35-Pore; for Minimum inhibitory concentration: EKO-35 araC::mexCD Pore, technical duplicate; for efflux pump-mediated resistance vs EKO-35-Pore: MexCD, OM compromised
Method in brief: as §1

[6] = test system: EKO-35 araC::acrBD408A Pore; details: for Fold changes of MICs: EKO-35 araC::acrBD408A Pore compared to EKO-35-Pore; for Minimum inhibitory concentration: EKO-35 araC::acrBD408A Pore, technical duplicate
Method in brief: as §1

[7] = test system: EKO-35 araC::macAB Pore; details: for Fold changes of MICs: EKO-35 araC::macAB Pore compared to EKO-35-Pore; for Minimum inhibitory concentration: EKO-35 araC::macAB Pore, technical duplicate
Method in brief: as §1

Structure (SMILES) | Fold changes of MICs [1] [fold] | Minimum inhibitory concentration [1] [µg/mL] | Fold changes of MICs [2] [fold] | Minimum inhibitory concentration, EKO-35 araC::acrEF Pore [2] [µg/mL] | Fold changes of MICs [3] [fold] | Minimum inhibitory concentration, EKO-35 araC::acrD Pore [3] [µg/mL] | Fold changes of MICs [4] [fold] | Minimum inhibitory concentration [4] [µg/mL] | Fold changes of MICs [5] [fold] | Minimum inhibitory concentration [5] [µg/mL] | Fold changes of MICs [6] [fold] | Minimum inhibitory concentration [6] [µg/mL] | Fold changes of MICs [7] [fold] | Minimum inhibitory concentration [7] [µg/mL] | efflux pump-mediated resistance vs EKO-35-Pore ([1]; EmrAB, porinated strain) | efflux pump-mediated resistance vs EKO-35-Pore ([2]; AcrEF with the pore) | efflux pump-mediated resistance vs EKO-35-Pore [5]
N#Cc1ccc(-c2c(NC(=O)C(Cl)Cl)oc(-c3cccs3)c2C#N)cc1 [compound 2] | 1 | 320 | 1 | 320 | 1 | 320 | 1 | 320 | 1 | 320 | 1 | 320 | 1 | 320 | – | – | –
N#CC(=NNc1cccc(C(F)(F)F)c1)C(=O)c1ccsc1 [compound 3] | 1 | 320 | 1 | 320 | 1 | 320 | 1 | 320 | 1 | 320 | 1 | 320 | 1 | 320 | – | – | –
CC(C)(C)c1cc(C(=O)NNC(=O)Nc2cccc3ccccc23)n(Cc2ccc(F)cc2)n1 [compound 4] | 8 | 20 | – | 320 | 4 | 10 | 1 | 1.25 | 16 | 40 | 1 | 2.5 | 2 | 5 | – | – | –
O=c1oc(-c2ccccc2Cl)nn1-c1ccc(C(F)(F)F)cn1 [compound 5] | 16 | 320 | 16 | 320 | 1 | 10 | 1 | 10 | 16 | 320 | 1 | 20 | 1 | 10 | – | – | –
O=C(Nc1ccccc1)Nc1ccc(Br)c(C(F)(F)F)c1 [compound 6] | 1 | 320 | 1 | 320 | 1 | 320 | 1 | 320 | 1 | 320 | 1 | 320 | 1 | 320 | – | – | –
O=C(Nc1ccc(C(F)(F)F)cc1)Nc1ccc(C(F)(F)F)cc1 [compound 7] | 1 | 320 | 1 | 320 | 1 | 320 | 1 | 320 | 1 | 320 | 1 | 320 | 1 | 320 | – | – | –
N#CC(C#N)=NNc1ccc(-n2ccc(C(F)(F)F)n2)cc1 [compound 8] | 1 | 40 | 1 | 40 | 1 | 40 | 1 | 80 | 1 | 80 | 1 | 80 | 1 | 80 | – | – | –
COC(=O)c1sc(N2CCCC2)c(C#N)c1-c1cccs1 [compound 10] | 16 | 160 | 16 | 160 | 16 | 160 | 1 | 10 | 16 | 160 | 1 | 10 | 1 | 10 | associated with resistance | increased resistance | increased resistance
O=[N+]([O-])c1ccc2c(c1)C(=NO)c1cc([N+](=O)[O-])ccc1-2 [compound 11] | 16 | 1.25 | – | 80 | 4 | 0.313 | 1 | 0.078 | 8 | 0.625 | 1 | 0.078 | 1 | 0.078 | – | – | –
CC(C)c1ccc(C=C(C#N)c2nc3ccccc3[nH]2)cc1 [compound 12] | 2 | 320 | 2 | 320 | 1 | 160 | 2 | 320 | 2 | 320 | 2 | 320 | 2 | 320 | – | – | –
O=C(NC(=O)N1CCc2c([nH]c3ccccc23)C1C(F)(F)F)c1ccccc1 (stereo not drawn) [compound 13] | 2 | 10 | – | 20 | 2 | 10 | 1 | 2.5 | 1 | 5 | 1 | 5 | 1 | 5 | – | – | no longer associated MexCD with resistance
Cn1cc(Br)c(-c2cccc(NC(=O)Nc3ccc(OC(F)(F)F)cc3)c2)n1 [compound 14] | 1 | 320 | 1 | 320 | 1 | 320 | 1 | 320 | 1 | 320 | 1 | 320 | 1 | 320 | – | – | –
N#CC(=NNc1ccc(F)c(Cl)c1)C(=O)c1ccc(Cl)cc1 [compound 15] | 1 | 320 | 1 | 320 | 1 | 320 | 1 | 320 | 1 | 320 | 1 | 320 | 1 | 320 | – | – | –
